Consider one compound from ChEMBL document CHEMBL3351686, “Facile and diastereoselective synthesis of 3,2'-spiropyrrolidine-oxindoles derivatives, their molecular docking and antiproliferative activities” (2015).

Each structure is given as a SMILES string. Values after ≈ are worked out from the molar mass of the structure shown.

For one assay, the system named is Salmonella typhimurium. Briefly: Antibacterial activity against Salmonella typhimurium MTCC 1251 assessed as zone of inhibition at 1 mg/disc after 24 hrs by disc diffusion method. It is filed as functional, Salmonella enterica subsp. enterica serovar Typhimurium.
Settings: not given
For orientation: Agar diffusion results depend on both activity and mobility in agar.
On to `N#C[C@]1(C(=O)c2c[nH]c3ccccc23)C2CCCN2[C@]2(C(=O)Nc3ccc([N+](=O)[O-])cc32)[C@@H]1c1cn(-c2ccccc2)nc1-c1ccccc1` (stereo partly specified), for which the “inhibition zone (IZ)” value came out at 9 mm.

The test system of another assay is Klebsiella pneumoniae. Description: Antibacterial activity against Klebsiella pneumoniae MTCC 109 assessed as zone of inhibition at 1 mg/disc after 24 hrs by disc diffusion method.
Settings: not given
It is filed as functional.
Regarding `N#C[C@]1(C(=O)c2c[nH]c3ccccc23)C2CCCN2[C@]2(C(=O)Nc3ccc([N+](=O)[O-])cc32)[C@@H]1c1cn(-c2ccccc2)nc1-c1ccccc1` (stereo partly specified), the “inhibition zone (IZ)” value is 9 mm.

The next assay concerns Proteus vulgaris. Briefly: Antibacterial activity against Proteus vulgaris MTCC 1771 assessed as zone of inhibition at 1 mg/disc after 24 hrs by disc diffusion method.
Settings: not given
It is filed as functional.
Regarding `N#C[C@]1(C(=O)c2c[nH]c3ccccc23)C2CCCN2[C@]2(C(=O)Nc3ccc([N+](=O)[O-])cc32)[C@@H]1c1cn(-c2ccccc2)nc1-c1ccccc1` (stereo partly specified), the “inhibition zone (IZ)” value was determined as 9 mm.

The subject of the next assay is Shigella flexneri. Briefly: Antibacterial activity against Shigella flexneri MTCC 1457 assessed as zone of inhibition at 1 mg/disc after 24 hrs by disc diffusion method. It counts as functional.
Settings: not given
Turning to `N#C[C@]1(C(=O)c2c[nH]c3ccccc23)C2CCCN2[C@]2(C(=O)Nc3ccc([N+](=O)[O-])cc32)[C@@H]1c1cn(-c2ccccc2)nc1-c1ccccc1` (stereo partly specified), the “inhibition zone (IZ)” value turned out to be 8 mm.

A further assay has as its system Micrococcus luteus. Description: Antibacterial activity against Micrococcus luteus MTCC 106 assessed as zone of inhibition at 1 mg/disc after 24 hrs by disc diffusion method. It is filed as functional.
Settings: not given
On to `N#C[C@]1(C(=O)c2c[nH]c3ccccc23)C2CCCN2[C@]2(C(=O)Nc3ccc([N+](=O)[O-])cc32)[C@@H]1c1cn(-c2ccccc2)nc1-c1ccccc1` (stereo partly specified), for which the “inhibition zone (IZ)” value was found to be 8 mm.

For a further assay, the system named is Klebsiella aerogenes. Briefly: Antibacterial activity against Enterobacter aerogenes MTCC 111 assessed as zone of inhibition at 1 mg/disc after 24 hrs by disc diffusion method.
Settings: not given
It is filed as functional.
For the compound `N#C[C@]1(C(=O)c2c[nH]c3ccccc23)C2CCCN2[C@]2(C(=O)Nc3ccc([N+](=O)[O-])cc32)[C@@H]1c1cn(-c2ccccc2)nc1-c1ccccc1` (stereo partly specified), the “inhibition zone (IZ)” value is 10 mm.

The subject of the next assay is Staphylococcus epidermidis. Description: Antibacterial activity against Staphylococcus epidermidis MTCC 3615 assessed as zone of inhibition at 1 mg/disc after 24 hrs by disc diffusion method. It counts as functional.
Settings: not given
On to `N#C[C@]1(C(=O)c2c[nH]c3ccccc23)C2CCCN2[C@]2(C(=O)Nc3ccc([N+](=O)[O-])cc32)[C@@H]1c1cn(-c2ccccc2)nc1-c1ccccc1` (stereo partly specified), for which the “inhibition zone (IZ)” value is 12 mm.

A further assay relates to Staphylococcus aureus. Briefly: Antibacterial activity against Staphylococcus aureus MTCC 96 assessed as zone of inhibition at 1 mg/disc after 24 hrs by disc diffusion method.
Settings: not given
It counts as functional.
In the case of `N#C[C@]1(C(=O)c2c[nH]c3ccccc23)C2CCCN2[C@]2(C(=O)Nc3ccc([N+](=O)[O-])cc32)[C@@H]1c1cn(-c2ccccc2)nc1-c1ccccc1` (stereo partly specified), the “inhibition zone (IZ)” value was 11 mm.

Another assay deals with Staphylococcus aureus. Briefly: Antibacterial activity against methicillin-resistant Staphylococcus aureus assessed as zone of inhibition at 1 mg/disc after 24 hrs by disc diffusion method.
Settings: not given
It counts as functional.
As to `N#C[C@]1(C(=O)c2c[nH]c3ccccc23)C2CCCN2[C@]2(C(=O)Nc3ccc([N+](=O)[O-])cc32)[C@@H]1c1cn(-c2ccccc2)nc1-c1ccccc1` (stereo partly specified), the “inhibition zone (IZ)” value is reported as 9 mm.

The next assay relates to Candida albicans. Briefly: Antifungal activity against Candida albicans MTCC 227 assessed as zone of inhibition at 1 mg/disc after 48 hrs by disc diffusion method. It is filed as functional.
Settings: not given
Take `N#C[C@]1(C(=O)c2c[nH]c3ccccc23)C2CCCN2[C@]2(C(=O)Nc3ccc([N+](=O)[O-])cc32)[C@@H]1c1cn(-c2ccccc2)nc1-c1ccccc1` (stereo partly specified): the “inhibition zone (IZ)” value was determined as 11 mm.

In the next assay the test system is Salmonella typhimurium. Description: Antibacterial activity against Salmonella typhimurium MTCC 1251 assessed as inhibition of visual growth after 24 hrs. The note with it: Salmonella enterica, MTCC 1251, 24 h. It is filed as functional, Salmonella enterica subsp. enterica serovar Typhimurium.
For the compound `N#C[C@]1(C(=O)c2c[nH]c3ccccc23)C2CCCN2[C@]2(C(=O)Nc3ccc([N+](=O)[O-])cc32)[C@@H]1c1cn(-c2ccccc2)nc1-c1ccccc1` (stereo partly specified), the MIC (commonly the smallest concentration in the dilution series that meets the test's criterion for growth inhibition) was found to be 250 µg/mL (≈ 379 µM).

In the next assay the test system is Klebsiella pneumoniae. Description: Antibacterial activity against Klebsiella pneumoniae MTCC 109 assessed as inhibition of visual growth after 24 hrs. It is filed as functional. The note with it: MTCC 109, 24 h.
In the case of `N#C[C@]1(C(=O)c2c[nH]c3ccccc23)C2CCCN2[C@]2(C(=O)Nc3ccc([N+](=O)[O-])cc32)[C@@H]1c1cn(-c2ccccc2)nc1-c1ccccc1` (stereo partly specified), the MIC came to 250 µg/mL (≈ 379 µM).

A further assay concerns Proteus vulgaris. Briefly: Antibacterial activity against Proteus vulgaris MTCC 1771 assessed as inhibition of visual growth after 24 hrs. It counts as functional. To be noted: MTCC 1771, 24 h.
With `N#C[C@]1(C(=O)c2c[nH]c3ccccc23)C2CCCN2[C@]2(C(=O)Nc3ccc([N+](=O)[O-])cc32)[C@@H]1c1cn(-c2ccccc2)nc1-c1ccccc1` (stereo partly specified), the MIC was 125 µg/mL (≈ 189 µM).

The next assay has as its system Shigella flexneri. Description: Antibacterial activity against Shigella flexneri MTCC 1457 assessed as inhibition of visual growth after 24 hrs. To be noted: MTCC 1457, 24 h. It is filed as functional.
Turning to `N#C[C@]1(C(=O)c2c[nH]c3ccccc23)C2CCCN2[C@]2(C(=O)Nc3ccc([N+](=O)[O-])cc32)[C@@H]1c1cn(-c2ccccc2)nc1-c1ccccc1` (stereo partly specified), the MIC amounted to 500 µg/mL (≈ 758 µM).

A further assay deals with Micrococcus luteus. Description: Antibacterial activity against Micrococcus luteus MTCC 106 assessed as inhibition of visual growth after 24 hrs. It counts as functional. The note with it: MTCC 106, 24 h.
For `N#C[C@]1(C(=O)c2c[nH]c3ccccc23)C2CCCN2[C@]2(C(=O)Nc3ccc([N+](=O)[O-])cc32)[C@@H]1c1cn(-c2ccccc2)nc1-c1ccccc1` (stereo partly specified), the MIC was 500 µg/mL (≈ 758 µM).

For the next assay, the system named is Klebsiella aerogenes. Briefly: Antibacterial activity against Enterobacter aerogenes MTCC 111 assessed as inhibition of visual growth after 24 hrs. It counts as functional. The note with it: MTCC 111, 24 h.
For the compound `N#C[C@]1(C(=O)c2c[nH]c3ccccc23)C2CCCN2[C@]2(C(=O)Nc3ccc([N+](=O)[O-])cc32)[C@@H]1c1cn(-c2ccccc2)nc1-c1ccccc1` (stereo partly specified), the minimal inhibitory concentration (MIC) was found to be 250 µg/mL (≈ 379 µM).

In the next assay the test system is Staphylococcus epidermidis. Description: Antibacterial activity against Staphylococcus epidermidis MTCC 3615 assessed as inhibition of visual growth after 24 hrs. It is filed as functional. To be noted: MTCC 3615, 24 h.
Turning to `N#C[C@]1(C(=O)c2c[nH]c3ccccc23)C2CCCN2[C@]2(C(=O)Nc3ccc([N+](=O)[O-])cc32)[C@@H]1c1cn(-c2ccccc2)nc1-c1ccccc1` (stereo partly specified), the MIC came to 250 µg/mL (≈ 379 µM).

Another assay relates to Staphylococcus aureus. Briefly: Antibacterial activity against Staphylococcus aureus MTCC 96 assessed as inhibition of visual growth after 24 hrs. It is filed as functional. To be noted: MTCC 96, 24 h.
`N#C[C@]1(C(=O)c2c[nH]c3ccccc23)C2CCCN2[C@]2(C(=O)Nc3ccc([N+](=O)[O-])cc32)[C@@H]1c1cn(-c2ccccc2)nc1-c1ccccc1` (stereo partly specified): the MIC is 125 µg/mL (≈ 189 µM).

The test system of the next assay is Staphylococcus aureus. Briefly: Antibacterial activity against methicillin-resistant Staphylococcus aureus assessed as inhibition of visual growth after 24 hrs. It is filed as functional.
Settings: not given
`N#C[C@]1(C(=O)c2c[nH]c3ccccc23)C2CCCN2[C@]2(C(=O)Nc3ccc([N+](=O)[O-])cc32)[C@@H]1c1cn(-c2ccccc2)nc1-c1ccccc1` (stereo partly specified): the MIC came to 500 µg/mL (≈ 758 µM).

A further assay has as its system Candida albicans. Briefly: Antifungal activity against Candida albicans MTCC 227 assessed as inhibition of visual growth after 48 to 72 hrs. It counts as functional.
Settings: not given
For the compound `N#C[C@]1(C(=O)c2c[nH]c3ccccc23)C2CCCN2[C@]2(C(=O)Nc3ccc([N+](=O)[O-])cc32)[C@@H]1c1cn(-c2ccccc2)nc1-c1ccccc1` (stereo partly specified), the minimum inhibitory concentration (MIC) came out at 250 µg/mL (≈ 379 µM).

The test system of another assay is Malassezia pachydermatis. Briefly: Antifungal activity against Malassezia pachydermatis assessed as inhibition of visual growth after 48 to 72 hrs. It is filed as functional.
Settings: not given
For `N#C[C@]1(C(=O)c2c[nH]c3ccccc23)C2CCCN2[C@]2(C(=O)Nc3ccc([N+](=O)[O-])cc32)[C@@H]1c1cn(-c2ccccc2)nc1-c1ccccc1` (stereo partly specified), the MIC came to 500 µg/mL (≈ 758 µM).
